Measurements taken from patent US7910751B2, “Heterocyclidene acetamide derivative” (Mochida Pharmaceutical Co., Ltd., priority 2005, dated 2011).

Each molecule was assayed against T1, human TRPV1 (Homo sapiens, UniProt Q8NER1) (assay: Measurement of capsaicin-induced Ca influx in human TRPV1 transformed CHO cell line using FDSS-6000). Conditions: concentration at which the capsaicin concentration-reaction curve is shifted two times to the right, human TRPV1 transformed CHO cells.
T1 construct: expressed in transfected cells; host or cells: CHO-K1
Format: cell-based
Excerpt: [Measurement of Capsaicin-Induced Ca Influx in Human TRPV1 Transformed CHO Cell Line]
(1) Establishment of Human TRPV1 Transformed CHO Cell Line
Human vanilloid receptor 1 (hTRPV1) cDNA was cloned from a human brain. The cloned hTRPV1 cDNA was incorporated in a pCAGGS vector. The gene of the vector was introduced to a CHO-K1 cell line, thus performing transformation. Clones obtained by limiting dilution were stimulated with capsaicin. Clones with a high responsiveness were selected using an increase in the Ca concentration as an indicator. The selected clones were used for the following experiment.
(2) Measurement of Ca Influx Using FDSS-6000
The human TRPV1 transformed CHO cells were seeded in a 96-well plate (with black walls and transparent bottoms, manufactured by Greiner) at a density of 40,000 cells per well. The cells were cultured at 37° C. in 5% CO2 for one night. A loading solution of FLIPR Calcium 3 assay kit (manufactured by Molecular Devices Corporation) containing 2.5 mmol/L of probenecid was then added to each of the wells in the same amount as the culture medium, and the cells were cultured at 37° C. for 60 minutes. After the cells were stimulated with capsaicin (1 nmol/L to 1 μmol/L), the change in the Ca concentration in the cells was measured using FDSS-6000 (λex: 480 nm, λem: 540 nm, manufactured by Hamamatsu Photonics K.K.) for three minutes. The integrated values of the increase rate of the Ca concentration in the cells were calculated for a group treated with the compounds of the present invention and a group treated with a medium, thus allowing capsaicin concentration-reaction curves to be obtained. A concentration (A2 value) of each of the compounds of the present invention, at which the capsaicin concentration-reaction curve obtained when the cells were treated with the medium was shifted two times to the right side, was calculated. The inhibiting effects of the test compounds were compared using this value as an indicator.
In the case where a compound of the present invention is an agonist, when the cells are treated with the compound of the present invention prior to the capsaicin stimulation, the Ca influx is observed. In Table 1, compounds of the present invention having an A2 value of less than 100 nM are represented by A, and compounds having an A2 value of 100 nM or more are represented by B. When the A2 values of the compounds of the present invention were measured by the above-described method, the compounds have an intensity of 1 μM or less.

T1 sequence (Q8NER1 whole entry): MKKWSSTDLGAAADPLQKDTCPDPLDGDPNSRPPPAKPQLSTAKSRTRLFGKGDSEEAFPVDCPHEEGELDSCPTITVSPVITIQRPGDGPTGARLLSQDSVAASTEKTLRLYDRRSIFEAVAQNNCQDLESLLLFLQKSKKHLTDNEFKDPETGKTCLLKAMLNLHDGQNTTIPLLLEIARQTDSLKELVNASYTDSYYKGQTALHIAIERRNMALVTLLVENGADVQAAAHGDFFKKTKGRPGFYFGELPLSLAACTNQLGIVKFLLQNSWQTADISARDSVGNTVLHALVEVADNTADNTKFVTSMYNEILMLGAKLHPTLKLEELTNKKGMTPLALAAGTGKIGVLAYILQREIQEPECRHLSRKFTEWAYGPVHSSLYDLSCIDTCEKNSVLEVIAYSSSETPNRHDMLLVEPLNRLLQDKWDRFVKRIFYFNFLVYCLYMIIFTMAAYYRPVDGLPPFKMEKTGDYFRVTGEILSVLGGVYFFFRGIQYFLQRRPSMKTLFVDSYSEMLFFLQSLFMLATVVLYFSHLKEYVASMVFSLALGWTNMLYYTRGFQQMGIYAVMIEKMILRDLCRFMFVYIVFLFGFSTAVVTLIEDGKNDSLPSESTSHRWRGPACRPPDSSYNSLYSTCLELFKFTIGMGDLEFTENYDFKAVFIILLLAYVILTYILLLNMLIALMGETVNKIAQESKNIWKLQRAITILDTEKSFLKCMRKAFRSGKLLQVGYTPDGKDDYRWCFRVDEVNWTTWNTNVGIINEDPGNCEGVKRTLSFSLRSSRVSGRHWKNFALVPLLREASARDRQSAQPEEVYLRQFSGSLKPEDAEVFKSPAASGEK

Row | Compound | A2 VALUE
1 | CC1(C)C/C(=C\C(=O)Nc2cccc3c2CC(O)CC3)c2ccc(C(F)(F)F)cc2O1 (stereo not shown) [Example 241, (E)-2-(7-trifluoromethyl-2,2-dimethylchroman-4-ylidene)-N-(7-hydroxy-5,6,7,8-tetrahydronaphthalen-1-yl)acetamide] | A (compounds of the present invention having an A2 value of less than 100 nM are represented by A)
2 | O=C(/C=C1\CCN(C(=O)Cc2ccccc2)c2cc(C(F)(F)F)ccc21)Nc1cccc2c1CC(O)CC2 (stereo not shown) [Example 94, (E)-2-(1-phenylacetyl-7-trifluoromethyl-2,3-dihydroquinolin-4(1H)-ylidene)-N-(7-hydroxy-5,6,7,8-tetrahydronaphthalen-1-yl)acetamide] | A (compounds of the present invention having an A2 value of less than 100 nM are represented by A)
3 | CC1(C)N/C(=C\C(=O)Nc2cccc3c2CC(O)CC3)c2ccc(C(F)(F)F)cc2O1 (stereo not shown) [Example 240, (Z)-2-(6-trifluoromethyl-3,3-dimethyl-4-oxa-3,4-dihydro-(2H)-isoquinolin-1-ylidene)-N-(7-hydroxy-5,6,7,8-tetrahydronaphthalen-1-yl)acetamide] | A (compounds of the present invention having an A2 value of less than 100 nM are represented by A)
4 | CC(CNC(=O)/C=C1\CCCOc2cc(C(F)(F)F)ccc21)c1cccc2c1CC(O)CC2 (stereo not shown) [Example 227, (E)-2-(8-trifluoromethyl-3,4-dihydrobenzo[b]oxepin-5(2H)-ylidene)-N-(2-(7-hydroxy-5,6,7,8-tetrahydronaphthalen-1-yl)propyl)acetamide] | A (compounds of the present invention having an A2 value of less than 100 nM are represented by A)
5 | O=C(/C=C1\CCCOc2cc(C(F)(F)F)ccc21)Nc1ccc2c(c1)C(=O)CC2 [Example 157, (E)-2-(8-trifluoromethyl-3,4-dihydrobenzo[b]oxepin-5(2H)-ylidene)-N-(indan-1-on-6-yl)acetamide] | A (compounds of the present invention having an A2 value of less than 100 nM are represented by A)
6 | O=C(/C=C1\CCCOc2cc(C(F)(F)F)ccc21)Nc1cccc2c1CC(O)CC2 (stereo not shown) [Example 62, (E)-2-(8-trifluoromethyl-3,4-dihydrobenzo[b]oxepin-5-(2H)-ylidene)-N-(7-hydroxy-5,6,7,8-tetrahydronaphthalen-1-yl)acetamide] | A (compounds of the present invention having an A2 value of less than 100 nM are represented by A)
7 | CC(C)CCC(=O)N1CC/C(=C\C(=O)Nc2cccc3c2CC(O)CC3)c2ccc(C(F)(F)F)cc21 (stereo not shown) [Example 86, (E)-2-(1-(4-methylpentanoyl)-7-trifluoromethyl-2,3-dihydroquinolin-4(1H)-ylidene)-N-(7-hydroxy-5,6,7,8-tetrahydronaphthalen-1-yl)acetamide] | A (compounds of the present invention having an A2 value of less than 100 nM are represented by A)
8 | O=C(/C=C1\CCN(C(=O)C2(F)CCCC2)c2cc(C(F)(F)F)ccc21)Nc1cccc2c1CC(O)CC2 (stereo not shown) [Example 115, (E)-2-(1-(1-fluorocyclopentanecarbonyl)-7-trifluoromethyl-2,3-dihydroquinolin-4(1H)-ylidene)-N-(7-hydroxy-5,6,7,8-tetrahydronaphthalen-1-yl)acetamide] | A (compounds of the present invention having an A2 value of less than 100 nM are represented by A)
9 | O=C(/C=C1\CCCN(C(=O)C2CCCC2)c2cc(C(F)(F)F)ccc21)Nc1ccc2cccnc2c1 [Example 193, (E)-2-(1-cyclopentanecarbonyl-8-trifluoromethyl-1,2,3,4-tetrahydro-5H-benzo[b]azepin-5-ylidene)-N-(quinolin-7-yl)acetamide] | A (compounds of the present invention having an A2 value of less than 100 nM are represented by A)
10 | O=C(/C=C1\CCN(C(=O)C2CCC2)c2cc(C(F)(F)F)ccc21)Nc1ccc2cccnc2c1 [Example 75, (E)-2-(1-cyclobutanecarbonyl-7-trifluoromethyl-2,3-dihydroquinolin-4(1H)-ylidene)-N-(quinolin-7-yl)acetamide] | A (compounds of the present invention having an A2 value of less than 100 nM are represented by A)
11 | O=C(/C=C1\CCOc2cc(C(F)(F)F)ccc21)Nc1ccc2cccnc2c1 [Example 8, (E)-2-(7-trifluoromethyl-chroman-4-ylidene)-N-(quinolin-7-yl)acetamide] | A (compounds of the present invention having an A2 value of less than 100 nM are represented by A)
12 | Cc1nc2cc(NC(=O)/C=C3\CCCOc4cc(C(F)(F)F)ccc43)ccc2s1 [Example 19, (E)-2-(8-trifluoromethyl-3,4-dihydrobenzo[b]oxepin-5(2H)-ylidene)-N-(2-methyl-1,3-benzothiazolo-5-yl)acetamide] | A (compounds of the present invention having an A2 value of less than 100 nM are represented by A)
13 | O=C(/C=C1\CCCOc2cc(C(F)(F)F)ccc21)Nc1ccc(Oc2ccccc2)nc1 [Example 22, (E)-2-(8-trifluoromethyl-3,4-dihydrobenzo[b]oxepin-5(2H)-ylidene)-N-(6-phenoxypyridin-3-yl)acetamide] | B (compounds having an A2 value of 100 nM or more are represented by B)
14 | O=C(/C=C1\CCOc2cc(OC(F)(F)C(F)F)ccc21)Nc1cccc2c1CC(O)CC2 (stereo not shown) [Example 212, (E)-2-(7-(1,1,2,2-tetrafluoroethoxy)-chroman-4-ylidene)-N-(7-hydroxy-5,6,7,8-tetrahydronaphthalen-1-yl)acetamide] | A (compounds of the present invention having an A2 value of less than 100 nM are represented by A)
15 | O=C(/C=C1\CCN(C(=O)c2cccnc2)c2cc(C(F)(F)F)ccc21)Nc1ccc2cccnc2c1 [Example 55, (E)-2-(7-trifluoromethyl-2,3-dihydro-1-nicotinoylquinolin-4(1H)-ylidene)-N-(quinolin-7-yl)acetamide] | A (compounds of the present invention having an A2 value of less than 100 nM are represented by A)
16 | O=C(/C=C1\CCCOc2cc(C(F)(F)F)ccc21)NCCc1cccc2c1CC(O)CC2 (stereo not shown) [Example 226, (E)-2-(8-trifluoromethyl-3,4-dihydrobenzo[b]oxepin-5(2H)-ylidene)-N-(2-(7-hydroxy-5,6,7,8-tetrahydronaphthalen-1-yl)ethyl)acetamide] | A (compounds of the present invention having an A2 value of less than 100 nM are represented by A)
17 | CCCC(C)(C)C(=O)N1CC/C(=C\C(=O)Nc2ccc3cccnc3c2)c2ccc(C(F)(F)F)cc21 [Example 81, (E)-2-(1-(2,2-dimethylpentanoyl)-7-trifluoromethyl-2,3-dihydroquinolin-4(1H)-ylidene)-N-(quinolin-7-yl)acetamide] | A (compounds of the present invention having an A2 value of less than 100 nM are represented by A)
18 | O=C(/C=C1\CCN(C(=O)CCCC(F)(F)F)c2cc(C(F)(F)F)ccc21)Nc1cccc2c1CC(O)CC2 (stereo not shown) [Example 93, (E)-2-(1-(5,5,5-trifluoropentanoyl)-7-trifluoromethyl-2,3-dihydroquinolin-4(1H)-ylidene)-N-(7-hydroxy-5,6,7,8-tetrahydronaphthalen-1-yl)acetamide] | A (compounds of the present invention having an A2 value of less than 100 nM are represented by A)
19 | O=C(/C=C1\CCN(C(=O)C2CC2)c2cc(C(F)(F)F)ccc21)Nc1ccc2cccnc2c1 [Example 99, (E)-2-(7-trifluoromethyl-2,3-dihydro-1-cyclopropanecarbonylquinolin-4(1H)-ylidene)-N-(quinolin-7-yl)acetamide] | A (compounds of the present invention having an A2 value of less than 100 nM are represented by A)
20 | COCCN1CCCc2ccc(NC(=O)/C=C3\CCCOc4cc(C(F)(F)F)ccc43)cc21 [Example 130, (E)-2-(8-trifluoromethyl-3,4-dihydrobenzo[b]oxepin-5(2H)-ylidene)-N-(1-(2-methoxyethyl)-1,2,3,4-tetrahydroquinolin-7-yl)acetamide] | A (compounds of the present invention having an A2 value of less than 100 nM are represented by A)
21 | O=C(/C=C1\CCCOc2cc(C(F)(F)F)ccc21)Nc1cccc2c1CC(O)CO2 (stereo not shown) [Example 183, (E)-2-(8-trifluoromethyl-3,4-dihydrobenzo[b]oxepin-5(2H)-ylidene)-N-(3-hydroxy-chroman-5-yl)acetamide] | A (compounds of the present invention having an A2 value of less than 100 nM are represented by A)
22 | O=C(/C=C1\CCCOc2cc(C(F)(F)F)ccc21)Nc1cccc(N2CCCC2CO)c1 (stereo not shown) [Example 229] | B (compounds having an A2 value of 100 nM or more are represented by B)
